Target: T1, Bombyx mori EcR (VP16 fusion, CVBE switch construct) (Bombyx mori, UniProt P49881)
T1 sequence (P49881 86-606): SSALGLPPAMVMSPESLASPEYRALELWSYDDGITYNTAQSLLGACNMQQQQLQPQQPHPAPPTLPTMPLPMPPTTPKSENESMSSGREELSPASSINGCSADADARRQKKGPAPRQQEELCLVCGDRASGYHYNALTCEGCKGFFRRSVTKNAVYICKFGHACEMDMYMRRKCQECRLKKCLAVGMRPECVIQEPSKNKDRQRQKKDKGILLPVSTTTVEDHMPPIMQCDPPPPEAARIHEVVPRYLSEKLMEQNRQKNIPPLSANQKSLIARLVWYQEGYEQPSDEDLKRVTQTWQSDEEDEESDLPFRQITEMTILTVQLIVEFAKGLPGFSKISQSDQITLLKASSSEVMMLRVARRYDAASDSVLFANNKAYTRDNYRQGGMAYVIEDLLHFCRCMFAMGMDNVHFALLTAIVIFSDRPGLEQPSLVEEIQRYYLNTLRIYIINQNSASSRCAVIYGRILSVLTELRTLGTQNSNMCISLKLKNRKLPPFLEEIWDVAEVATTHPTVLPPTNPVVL
T1 sequence (P19793 1-462 partner): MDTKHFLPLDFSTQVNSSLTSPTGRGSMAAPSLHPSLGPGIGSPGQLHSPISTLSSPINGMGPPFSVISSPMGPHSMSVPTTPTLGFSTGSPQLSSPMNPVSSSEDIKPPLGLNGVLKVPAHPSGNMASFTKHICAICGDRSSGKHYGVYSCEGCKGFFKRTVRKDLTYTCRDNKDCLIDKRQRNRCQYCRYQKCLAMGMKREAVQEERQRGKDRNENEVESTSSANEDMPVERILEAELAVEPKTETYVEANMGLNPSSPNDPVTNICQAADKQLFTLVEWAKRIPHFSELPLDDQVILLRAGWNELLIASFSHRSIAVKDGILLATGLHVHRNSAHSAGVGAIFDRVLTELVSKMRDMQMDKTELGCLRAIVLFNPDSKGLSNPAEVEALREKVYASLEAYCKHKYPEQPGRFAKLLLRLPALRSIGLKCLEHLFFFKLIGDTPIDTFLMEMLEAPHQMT
Test: Z3 Assay (HEK-293 cells with CVBE and 6XEcRE LacZ, β-galactosidase reporter)
Conditions: for Fold Induction, Z3 Assay, 33 uM: 33 uM ligand; for Fold Induction, Z3 Assay, 33 uM / Fold Induction, Z3 Assay, 3.3 uM: ligand treated / DMSO treated cells; for Fold Induction, Z3 Assay, 33 uM / Fold Induction, Z3 Assay, 3.3 uM / EC50: average of two wells; for Fold Induction, Z3 Assay, 3.3 uM: 3.3 uM ligand; for Z3 assay Rel Max FI: maximum fold induction at any concentration relative to that of GS-E ligand; for Z3 assay Rel Max FI / EC50: HEK-293 Z3 cells; for EC50: read-out: Z3 assay EC50, β-galactosidase reporter
Excerpt: Dr. F. Gage provided a population of stably transformed cells containing CVBE and 6XEcRE as described in Suhr, S. T., Gil, E. B., Senut M. C., Gage, F. H. (1998) Proc. Natl. Acad. Sci. USA 95, 7999-804. Human 293 kidney cells, also referred to as HEK-293 cells, were sequentially infected with retroviral vectors encoding first the switch construct CVBE, and subsequently the reporter construct 6XEcRE Lac Z. The switch construct contained the coding sequence for amino acids 26-546 from Bombyx mori EcR (BE) (Iatrou) inserted in frame and downstream of the VP16 transactivation domain (VBE). A synthetic ATG start codon was placed under the control of cytomegalovirus (CVBE) immediate early promoter and flanked by long terminal repeats (LTR). The reporter construct contained six copies of the ecdysone response element (EcRE) binding site placed upstream of LacZ and flanked on both sides with LTR sequences (6XEcRE).
Dilution cloning was used to isolate individual clones. Clones were selected using 450 ug/mL G418 and 100 ng/mL puromycin. Individual clones were evaluated based on their response in the presence and absence of test ligands.
Human 293 kidney cells stably transformed with CVBE and 6XEcRE LacZ were maintained in Minimum Essential Medium (Mediates, 10-010-CV) containing 10% FBS (Life Technologies, 26140-087), […] G418 (Mediates, 30-234-CR), and […] (Sigma, P-7255), at 37° C. in an atmosphere containing 5% CO2 and were subculture when they reached 75% confluence.
Z3 cells were seeded into 96-well tissue culture plates at a concentration of 2.5×10^3 cells per well and incubated at 37° C. in 5% CO2 for twenty-four hours. Stock solutions of ligands were prepared in DMSO. Ligand stock solutions were diluted 100 fold in media and 50 μL of this diluted ligand solution ([…]) was added to cells. The final concentration of DMSO was maintained at 0.03% in both controls and treatments.
Reporter gene expression was evaluated 48 hours after treatment of cells, β-galactosidase activity was measured using Gal Screen™ bioluminescent reporter gene assay system from Tropix (GSY1000). Fold induction activities were calculated by dividing relative light units (“RLU”) in ligand treated cells with RLU in DMSO treated cells. Luminescence was detected at room temperature using a Dynex MLX microtiter plate luminometer.
Flanking both constructs are long terminal repeats, G418 and puromycin are selectable markers, CMV is the cytomegalovirus promoter, VBE is coding sequence for amino acids 26-546 from Bombyx mori EcR inserted downstream of the VP16 transactivation domain, 6×EcRE is six copies of the ecdysone response element, lacZ encodes for the reporter enzyme β-galactosidase.
Each assay was conducted in two separate wells, and the two values were averaged. Fold inductions were calculated by dividing relative light units (“RLU”) in ligand treated cells with RLU in DMSO treated cells. EC50s were calculated from dose response data using a three-parameter logistic model.

CCc1c(OC)cccc1C(=O)NN(C(=O)c1cc(C)n(-c2ccccc2)n1)C(C)(C)C [RG-115721]
Fold Induction, Z3 Assay, 33 uM: 2

CCc1ccc(C(=O)NN(C(=O)c2cccc(OC)c2)C(C)(C)C)c(F)c1 [RG-115269]
Fold Induction, Z3 Assay, 3.3 uM: 112
Z3 assay Rel Max FI: 0.552
EC50: 437 nM

Cc1cc(C)cc(C(=O)N(NC(=O)c2ccc3cc[nH]c3c2)C(C)(C)C)c1 [RG-115689]
Fold Induction, Z3 Assay, 3.3 uM: 13
Z3 assay Rel Max FI: 0.411
EC50: 100000 nM

CCc1c(OC)cccc1C(=O)NN(C(=O)c1ccc(C(=O)OC)cn1)C(C)(C)C [RG-115717]
Fold Induction, Z3 Assay, 33 uM: 9

CCc1ccc(C(=O)NN(C(=O)c2cc(C)nc(Cl)c2)C(C)(C)C)c(F)c1 [RG-115112]
Fold Induction, Z3 Assay, 3.3 uM: 618
Z3 assay Rel Max FI: 0.618
EC50: 309 nM

CCc1c(OC)cccc1C(=O)NN(C(=O)c1nn(C(c2ccccc2)(c2ccccc2)c2ccccc2)c2ccccc12)C(C)(C)C [RG-115722]
Fold Induction, Z3 Assay, 33 uM: 1

CCc1ccc(C(=O)NN(C(=O)c2cc(F)ccc2[N+](=O)[O-])C(C)(C)C)c(F)c1 [RG-115086]
Fold Induction, Z3 Assay, 3.3 uM: 433
Z3 assay Rel Max FI: 0.433
EC50: 692 nM

CCc1c(OC)cccc1C(=O)NN(C(=O)c1cccc2c1OCO2)C(C)(C)C [RG-115496]
Fold Induction, Z3 Assay, 3.3 uM: 874
Z3 assay Rel Max FI: 0.878
EC50: 1180 nM

CCc1c(OC)cccc1C(=O)NN(C(=O)c1cc2ccccc2n1C)C(C)(C)C [RG-115106, N′-2-Ethyl-3-methoxybenzoyl-N-t-butyl-N-(N-methylindole-2-carbonyl) hydrazide]
Fold Induction, Z3 Assay, 3.3 uM: 68
Z3 assay Rel Max FI: 0.457
EC50: 2570 nM

CCc1ccc(C(=O)NN(C(=O)c2cccc([N+](=O)[O-])c2)C(C)(C)C)c(F)c1 [RG-115167]
Fold Induction, Z3 Assay, 3.3 uM: 73
Z3 assay Rel Max FI: 0.533
EC50: 240 nM

CCc1c(OC)cccc1C(=O)NN(C(=O)c1n[nH]c2ccccc12)C(C)(C)C [RG-115723, 1H-Indazole-3-carboxylic acid N-tert-butyl-N′-(2-ethyl-3-methoxy-benzoyl)-hydrazide]
fold induction at 33 µM (HEK293, read-out: Fold Induction, Z3 Assay, 33 uM): 17

Cc1c(O)cccc1C(=O)NN(C(=O)c1cc(Cl)nc(Cl)c1)C(C)(C)C [RG-115261]
Fold Induction, Z3 Assay, 3.3 uM: 31
Z3 assay Rel Max FI: 0.498
EC50: 29500 nM

COCc1c(OC)cccc1C(=O)NN(C(=O)c1cc(Cl)cc(Cl)c1)C(C)(C)C [RG-115306]
Fold Induction, Z3 Assay, 3.3 uM: 5
Z3 assay Rel Max FI: 0.424
EC50: 3470 nM

Cc1cc(C)cc(C(=O)N(NC(=O)c2ccc3c(c2)OC(F)(F)O3)C(C)(C)C)c1 [RG-115256]
Fold Induction, Z3 Assay, 3.3 uM: 647
Z3 assay Rel Max FI: 0.527
EC50: 692 nM

CCc1ccc(C(=O)NN(C(=O)c2ccccc2OC)C(C)(C)C)c(F)c1 [RG-115422]
Fold Induction, Z3 Assay, 3.3 uM: 204
Z3 assay Rel Max FI: 0.769
EC50: 398 nM

CC(C)(C)N(NC(=O)c1ccc2c(c1)OC(F)(F)O2)C(=O)c1ccccc1[N+](=O)[O-] [RG-115352]
Fold Induction, Z3 Assay, 3.3 uM: 7
Z3 assay Rel Max FI: 0.265
EC50: 45700 nM

CCc1c(C(=O)NN(C(=O)c2ccc(C)cc2)C(C)(C)C)ccc2c1OCOC2 [RG-115611]
Fold Induction, Z3 Assay, 3.3 uM: 745
Z3 assay Rel Max FI: 0.703
EC50: 1580 nM

CCc1ccc(C(=O)NN(C(=O)c2cc(Cl)nc(Cl)c2)C(C)(C)C)c(F)c1 [RG-115128]
Fold Induction, Z3 Assay, 3.3 uM: 110
Z3 assay Rel Max FI: 0.538
EC50: 245 nM

COc1cc(C(=O)N(NC(=O)c2ccc3c(c2Cl)COCO3)C(C)(C)C)cc(OC)c1C [RG-115441]
Fold Induction, Z3 Assay, 3.3 uM: 118
Z3 assay Rel Max FI: 0.759
EC50: 126 nM

COc1cc(C(=O)N(NC(=O)c2cccc(OC(C)=O)c2C)C(C)(C)C)cc(OC)c1C [RG-115557]
Fold Induction, Z3 Assay, 3.3 uM: 426
Z3 assay Rel Max FI: 0.566
EC50: 1700 nM
